For two molecules, IC50 results are on record in patent EP0222996A2, “3-Amino-dihydro(1)benzopyrane and benzothiopyrane” (CIBA-GEIGY AG, priority 1985, dated 1987).

Counter-ions that a name gives are not always drawn. Like-named read-outs stand apart in the source and are kept apart here.

In this test the target is T1, Serotonin-(S-1A) (Rattus norvegicus, UniProt P19327).
T1 construct: Suspensionen aus Membranmaterial von Rattenhirn; from tissue; host or cells: rat brain membranes
T1 sequence (P19327 1-422): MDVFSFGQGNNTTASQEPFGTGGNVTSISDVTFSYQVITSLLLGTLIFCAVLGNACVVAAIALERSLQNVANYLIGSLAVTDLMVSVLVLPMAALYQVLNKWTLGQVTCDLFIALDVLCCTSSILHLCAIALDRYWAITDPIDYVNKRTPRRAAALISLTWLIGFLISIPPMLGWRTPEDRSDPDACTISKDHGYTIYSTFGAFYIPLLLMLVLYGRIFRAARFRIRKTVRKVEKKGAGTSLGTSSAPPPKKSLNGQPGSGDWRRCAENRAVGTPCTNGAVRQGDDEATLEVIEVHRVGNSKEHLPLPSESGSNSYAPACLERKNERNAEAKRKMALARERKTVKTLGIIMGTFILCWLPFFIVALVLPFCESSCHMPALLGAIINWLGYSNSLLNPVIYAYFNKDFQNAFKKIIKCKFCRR
Briefly: 3H-serotonin binding assay on rat brain membrane suspensions. Also on record: species or system Ratten. From the text:
Die Serotonin-(S-1A)-Aufnahme, welche für Regulatoren mit Rezeptor-eigenschaften bei Serotonin-Agonisten indiziert ist, kann in-vitro wie folgt in einem Bindungsassay nachgewiesen werden: • Man stellt Suspensionen aus Membranmaterial von Rattenhirn her und inkubiert diese mit ^3H-Serotonin gemäss der Vorschrift von Martin und Sanders-Bush, Naunyn-Schmiederberg Arch. Pharmacol. 321, 165 (1982) und Middlemiss und Fozard Eur. J. Pharmacol., 90, 151 (1983).
In diesem Bindungsassay werden aliquote Teile von […] Zellsuspensionen zu abgepufferten ^3H-Serotonin-Lösungen mit und ohne Wirkstoff gegeben. Die Konzentration an ^3H-Serotonin ist 2 nM und man wertet die zu testenden Wirkstoffe über einen weiten Konzentrationsbereich aus. Die IC50-Werte (Konzentrationen an Wirkstoff, welche zur Hemmung von 50 % 2 nM ^3H-Serotonin nötig sind) werden graphisch bestimmt.

With `CCCN(CCC)C1CSc2cccc(OCC)c2C1` (centres unmarked) [3,4-Dihydro-N,N-dipropyl-5-ethoxy-2H-[1]-benzothiopyran-3-amin-hydrochlorid], the IC50 (concentration needed to inhibit 50 % of 2 nM 3H-Serotonin, rat brain membranes, determined graphically, read-out: IC50-Werte) was around 21 nM. `CCCN(CCC)C1COc2cccc(OCC)c2C1` (centres unmarked) [5-Aethoxy-N,N-dipropyl-3,4-dihydro-2H-[1]-benzopyran-3-amin-hydrochlorid] displayed an IC50 of around 40 nM.

For orientation: IC50 means the point on the concentration scale where inhibition reaches its midpoint.
